# Results published in BindingDB's records for doi:10.1042/BJ20030674 (University of Padova, 2003).
# Test: In vitro kinase assay using purified enzyme, was incubated at room temperature with substrate, and test compounds in the presence of 100 uM ATP/ [gamma-33P] ATP. 33P incorporation was measured with scintillation counter. IC50 values were calculated from dose-response curves; from these calculated apparent inhibition constants (Ki) were obtained usin
# Conditions: pH 7.5
row,IC50 [µM],Structure (SMILES)
1,9.6,NCCNc1cc(-c2ccnc(Nc3cccc(Cl)c3)n2)ccn1 [4-{2-[(2-aminoethyl)amino]pyridin-4-yl}-N-(3-chlorophenyl)pyrimidin-2-amine]
2,3.2,Clc1cccc(Nc2nccc(-c3ccnc(NCCc4cnc[nH]4)c3)n2)c1 [N-(3-chlorophenyl)-4-(2-{[2-(1H-imidazol-4-yl)ethyl]amino}pyridin-4-yl)pyrimidin-2-amine]
3,3.6,"OCCCNc1cc(-c2ccnc(Nc3cccc(OC(F)(F)C(F)F)c3)n2)ccn1 [3-{[4-(2-{[3-(1,1,2,2-tetrafluoroethoxy)phenyl]amino}pyrimidin-4-yl)pyridin-2-yl]amino}propan-1-ol]"
